Data from ChEMBL document CHEMBL1201862, “PubChem BioAssay data set” (2004).
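Where inhibition never reached the appropriate level, the endpoint shown equals the highest concentration tested. Otherwise, values were interpolated linearly from a five-concentration, 48-hour dose response in 96-well plates. Abbreviation: GI50, concentration required for 50% inhibition of growth.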 The source made the active and inactive calls. No stated cut-off is given here; in the data, active = GI50 up to about 1.1 µM and inactive = higher.

Columns and labels:
Assay in all cases: NCI tumour cell line growth inhibition, 48 h
[1] = system: OVCAR-8
[2] = system: SF-295
[3] = system: SW-620
[4] = system: LOX IMVI
[5] = system: RXF 393
[6] = system: HCT-15
[7] = system: SK-OV-3
[8] = system: LXFL 529
[9] = system: EKVX
[10] = system: RPMI-8226
[11] = system: M19-MEL
[12] = system: SK-MEL-28
[13] = system: KM12
[14] = system: M14
[15] = system: NCI-H23
[16] = system: TK-10
[17] = system: SK-MEL-5
[18] = system: SK-MEL-2
[19] = system: XF498
[20] = system: HT-29
[21] = system: SN12C
[22] = system: SR
[23] = system: DLD-1
[24] = system: COLO 205
[25] = system: CAKI-1
[26] = system: SNB-78
[27] = system: OVCAR-5
[28] = system: 786-0
[29] = system: HL-60
[30] = system: NCI-H522
[31] = system: IGROV-1
[32] = system: MOLT-4
[33] = system: UO-31
[34] = system: CCRF-CEM
[35] = system: HCT-116
[36] = system: OVCAR-3
[37] = system: HOP-18
[38] = system: HOP-62
[39] = system: U-251
[40] = system: A498
[41] = system: ACHN
[42] = system: SNB-75
[43] = system: SF-539
[44] = system: SNB-19
[45] = system: SF-268
[46] = system: DMS-114
[47] = system: HCC 2998
[48] = system: HOP-92
[49] = system: UACC-62
[50] = system: Malme-3M
[51] = system: NCI-H460
[52] = system: A549
[53] = system: KM-20L2
[54] = system: OVCAR-4
[55] = system: RXF 631
[56] = system: NCI-H226
[57] = system: UACC-257
[58] = system: K562

COC(=O)C(=O)C(C(=O)OC)C(=O)C(=O)Nc1c(C)cccc1C (stereo not drawn)
GI50 [1]: > 100 µM (inactive)
GI50 [2]: > 100 µM (inactive)
GI50 [3]: > 100 µM (inactive)
GI50 [4]: > 100 µM (inactive)
GI50 [5]: > 100 µM (inactive)
GI50 [6]: > 100 µM
GI50 [7]: > 100 µM (inactive)
GI50 [8]: > 100 µM (inactive)
GI50 [9]: > 100 µM (inactive)
GI50 [10]: > 100 µM (inactive)
GI50 [11]: > 100 µM (inactive)
GI50 [12]: > 100 µM (inactive)
GI50 [13]: > 100 µM (inactive)
GI50 [14]: > 100 µM (inactive)
GI50 [15]: > 100 µM (inactive)
GI50 [16]: > 100 µM (inactive)
GI50 [17]: > 100 µM (inactive)
GI50 [18]: > 100 µM (inactive)
GI50 [19]: > 100 µM (inactive)
GI50 [20]: > 100 µM (inactive)
GI50 [21]: > 100 µM (inactive)
GI50 [22]: > 100 µM (inactive)
GI50 [23]: > 100 µM (inactive)
GI50 [24]: > 100 µM (inactive)
GI50 [25]: > 100 µM (inactive)
GI50 [26]: > 100 µM (inactive)
GI50 [27]: > 100 µM (inactive)
GI50 [28]: > 100 µM (inactive)
GI50 [29]: > 100 µM (inactive)
GI50 [30]: 97.5 µM (inactive)
GI50 [31]: > 100 µM (inactive)
GI50 [32]: > 100 µM (inactive)
GI50 [33]: > 100 µM (inactive)
GI50 [34]: 48.2 µM (inactive)
GI50 [35]: > 100 µM (inactive)
GI50 [36]: > 100 µM (inactive)
GI50 [37]: > 100 µM (inactive)
GI50 [38]: > 100 µM (inactive)
GI50 [39]: > 100 µM (inactive)
GI50 [40]: > 100 µM (inactive)
GI50 [41]: > 100 µM (inactive)
GI50 [42]: > 100 µM (inactive)
GI50 [43]: > 100 µM (inactive)
GI50 [44]: > 100 µM (inactive)
GI50 [45]: > 100 µM (inactive)
GI50 [46]: > 100 µM (inactive)
GI50 [47]: > 100 µM (inactive)
GI50 [48]: 41.6 µM (inactive)
GI50 [49]: > 100 µM (inactive)
GI50 [50]: > 100 µM (inactive)
GI50 [51]: > 100 µM (inactive)
GI50 [52]: > 100 µM (inactive)
GI50 [53]: > 100 µM (inactive)
GI50 [54]: > 100 µM (inactive)
GI50 [55]: > 100 µM (inactive)
GI50 [56]: > 100 µM (inactive)
GI50 [57]: > 100 µM (inactive)
GI50 [58]: > 100 µM (inactive)
